Where a SMILES comes first, the peptide text is derived from it. Where no end group is shown, it is not given here. [ ]: non-standard residue; d: D form. Bounds are passed on as bounds.

Six molecules from patent US10822376B2, “Biologically active peptides” (Baxalta Incorporated, priority 2008, dated 2020) can be followed below.

Data set [1] relates to FVIII-inhibited human normal plasma. Put plainly: Defined Fibrin Deposition Assay (clotting time). It counts as biochemical. The following applies: for Activity in the Defined Fibrin Deposition Assay: summary. Here is the method:
Another suitable assay to determine procoagulant activity, and particularly FVIII equivalent activity or FVIII inhibitor bypassing activity, is the Defined Fibrin Deposition Assay as described below. […] This assay is particularly useful for determining coagulation FVIII activity because it is conducted in the presence of FVIII-depleted or inhibited plasma.
The Defined Fibrin Deposition Assay is performed as follows. FVIII activity of human citrated plasma (Baxter AG) is first inhibited by incubating (2 hours, 37° C.) 100 μl of human normal plasma with 25 μl heat inactivated anti-human FVIII plasma (300 BU/ml, 6 hours incubated at 56° C.) raised in goat. For each sample to be tested, 125 μl of this FVIII-inhibited human normal plasma is transferred to a pre-warmed cuvette and a 75 μl dilution of a test compound or FEIBA reference standard (Baxter AG) is added. The dilutions of test compound or FEIBA reference standard contain 50 mM imidazole, 100 mM NaCl and 10 mg/ml human serum albumin (Sigma) pH 7.4. As a trigger and for providing procoagulant surfaces 100 μl of a mix of human factor XIa (3.13 nM, Enzyme Research Laboratories) and phospholipid (PL) vesicles (Phosphatidylcholine/Phosphatidylserine 60%/40%, 30 μM; Avanti Polar Lipids) in 50 mM Imidazole, 100 mM NaCl, 10 mg/ml human serum albumin (Sigma) pH 7.4 is included. After incubating for three minutes at 37° C. the coagulation reaction is started by adding 100 μl of 25 mM CaCl2. Clot formation is monitored by a coagulometer (KC10A, Amelung, Germany). In brief, each cuvette rotates slowly above the magnetic detection device and contains a small magnetic metallic ball. Whilst the plasma components remain in solution, the ball sits at the bottom of the cuvette. Over time, a clot begins to form, such that the ball starts to rotate with the developing clot in the rotating cuvette. The “clotting time” is recorded and is defined as the time from addition of the CaCl2) to the time that the developing clot begins to rotate the metallic ball. A standard curve for FEIBA reference standard dilutions is calculated by linear regression of logarithmic FEIBA concentrations (x-axis) against the clotting time (y-axis). Based on the clotting time of each compound concentration FEIBA equivalent activities are calculated according to this standard curve.
Thus, where a concentration of 100 μM is given, the actual concentration in the final assay volume in 25 μM.
Various peptides were tested for the ability to stimulate fibrin deposition in the Defined Fibrin Deposition Assay as described in the specific description.

In data set [2] the target is T1, HERG channel (Homo sapiens, UniProt Q12809). Put plainly: HERG inhibition, patch clamp assay. As to conditions: patch clamp assay. Here is the method: QT prolongation is assessed by HERG inhibition measured by patch-clamp techniques or Rb^+ efflux.
T1 sequence (Q12809 whole entry): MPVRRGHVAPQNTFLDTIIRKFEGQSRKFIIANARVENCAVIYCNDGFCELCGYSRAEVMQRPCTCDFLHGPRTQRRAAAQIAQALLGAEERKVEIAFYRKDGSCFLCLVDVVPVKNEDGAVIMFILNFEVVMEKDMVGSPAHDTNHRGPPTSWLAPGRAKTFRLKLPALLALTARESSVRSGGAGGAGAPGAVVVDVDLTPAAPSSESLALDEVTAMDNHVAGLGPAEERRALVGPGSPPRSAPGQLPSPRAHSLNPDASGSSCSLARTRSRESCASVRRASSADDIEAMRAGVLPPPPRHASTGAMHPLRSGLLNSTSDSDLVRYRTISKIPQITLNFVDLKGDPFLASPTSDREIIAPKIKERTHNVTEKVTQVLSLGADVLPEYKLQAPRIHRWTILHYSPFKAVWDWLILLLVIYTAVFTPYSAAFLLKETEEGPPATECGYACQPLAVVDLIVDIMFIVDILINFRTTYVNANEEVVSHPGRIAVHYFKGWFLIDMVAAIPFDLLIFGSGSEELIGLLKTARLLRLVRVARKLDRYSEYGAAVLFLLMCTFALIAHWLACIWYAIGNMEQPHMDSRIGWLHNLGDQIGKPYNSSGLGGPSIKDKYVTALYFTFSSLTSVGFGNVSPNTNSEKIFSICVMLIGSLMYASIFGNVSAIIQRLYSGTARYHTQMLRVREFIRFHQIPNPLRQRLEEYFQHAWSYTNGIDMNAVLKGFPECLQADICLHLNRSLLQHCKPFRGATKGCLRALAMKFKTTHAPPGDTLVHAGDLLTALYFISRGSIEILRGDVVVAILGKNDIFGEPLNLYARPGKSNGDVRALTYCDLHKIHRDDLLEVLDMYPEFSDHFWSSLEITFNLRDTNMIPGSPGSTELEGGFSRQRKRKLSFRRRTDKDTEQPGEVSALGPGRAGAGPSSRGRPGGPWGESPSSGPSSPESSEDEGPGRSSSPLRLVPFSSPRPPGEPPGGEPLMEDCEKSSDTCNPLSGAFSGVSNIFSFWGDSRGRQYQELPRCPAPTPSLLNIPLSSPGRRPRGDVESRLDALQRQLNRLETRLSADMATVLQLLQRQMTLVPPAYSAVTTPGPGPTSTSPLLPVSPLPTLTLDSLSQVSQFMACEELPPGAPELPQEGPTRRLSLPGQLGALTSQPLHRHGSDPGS
For rigorous characterization of HERG inhibition the patch clamp assay is applied (Cerep, France, Catalog ref. 900-36). […] The test compounds (10 mM stock solutions) were dissolved in dimethylsulfoxide (DMSO). The solutions at 1 μM contained 0.01% DMSO.

Data set [3] addresses T1, HERG channel. It counts as cell-based.
Experimental: It was tested at 10 μM and the data were compared with historical values determined at Cerep.
The subject of another data set is C57BI/6 mice. The data set can be described thus: Acute toxicology in mice. The data set is classed as in vivo, mouse. As to conditions: 60 minutes following administration; for Max dose within toxicity category: Severe toxicity (one of the animals died within one hour) / Max dose within toxicity category: Some toxicity (ataxy or catalepsy, no deaths): i.v. Here is the method:
Toxicology studies involved monitoring of attitude changes due to toxic effects immediately after application and twice daily; monitoring of body weight; histopathology of brain, heart, kidney, liver, lung. Experiments were performed in C57131/6 mice.
C57BI/6 mice weighing 18-20 g were administered with compounds in a suitable vehicle i.v. in the tail vein or i.p. or s.c at 10 ml/kg. Quantities of the compounds administered were in the range of 0.075 to 125 mg/kg (i.v.), 15-125 mg/kg (i.p.) and 125 mg/kg (s.c.). There were four mice per group. Attitude changes due to toxic effects were monitored immediately after administration of the compound and for 60 minutes thereafter. Body weight was monitored for five days after administration. At day 5 after administration, mice were culled and autopsy performed. Brain, heart, kidney, liver, lung and spleen were biopsied.
In the above table, the maximum dose tested giving rise to no detected toxicity, some toxicity or severe toxicity over the period of 60 minutes following administration is reported. “No detected toxicity” indicates no acute toxic observations.

The nature of data set [4]: in vitro. As to conditions: mouse, microsomes, pH 7.4. The data set is classed as in vitro ADME. The protocol:
Tests were used to determine the stability of compounds in microsomal preparations of human or animal origin. The microsomal stability is measured either in assays provided by Cerep (France, Catalog ref. 900-8h) or by the protocol described below. […] All wells must be carefully mixed to ensure a homogenous suspension before the next steps. 75 μl samples (duplicates) at t=0 minutes are taken for each compound. The plate is sealed and returned to the water bath/thermomixer for 30 minutes. The test compounds/standards are extracted by addition of 200 μl methanol, also including an internal standard. […] The samples are centrifuged at 1300 g for 10 min at 4° C. 200 μl of the supernatant is transferred into a 96-well plate with 10 μl DMSO per well. Compound stability is measured by HPLC-MS analysis (triplicates). The same procedure is repeated after 30 min. […] The signal to noise ratio for all peaks must be 5:1 or better. The ratio AUCanalyte: AUCstandard at the different timepoints must be used. The calculated stability for the control compound must fall in a certain range to validate the assay.

A further data set in a line: in vivo. As to conditions: C57BL/6, mouse.
A short description of data set [5]: in vitro. The following applies: human, pH 7.4.
A short description of data set [6]: in vitro. As to conditions: mouse, pH 7.4.
The target of the next data set is mouse serum albumin (Mus musculus, UniProt P07724). The data set can be described thus: in vitro. The following applies: pH 7.4.
Chain of mouse serum albumin (P07724 25-608): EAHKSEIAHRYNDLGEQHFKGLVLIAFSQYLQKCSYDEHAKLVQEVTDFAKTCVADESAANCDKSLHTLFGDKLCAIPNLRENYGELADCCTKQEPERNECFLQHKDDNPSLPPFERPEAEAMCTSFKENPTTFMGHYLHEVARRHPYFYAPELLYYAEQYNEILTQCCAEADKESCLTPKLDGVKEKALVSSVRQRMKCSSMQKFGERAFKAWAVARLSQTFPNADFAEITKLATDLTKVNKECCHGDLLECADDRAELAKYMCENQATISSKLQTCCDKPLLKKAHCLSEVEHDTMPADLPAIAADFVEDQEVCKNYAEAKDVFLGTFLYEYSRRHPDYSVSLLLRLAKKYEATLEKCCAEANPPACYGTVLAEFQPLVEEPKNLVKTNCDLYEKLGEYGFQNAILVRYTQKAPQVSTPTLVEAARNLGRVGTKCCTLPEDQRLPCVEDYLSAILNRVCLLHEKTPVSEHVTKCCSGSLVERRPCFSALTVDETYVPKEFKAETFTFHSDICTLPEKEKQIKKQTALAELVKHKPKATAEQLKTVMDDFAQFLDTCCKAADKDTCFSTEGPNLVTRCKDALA

Experimental for in vivo: Pharmacokinetics of compounds were tested in C57BI/6 mice or Wistar rats at 1-30 mg/kg. Compound concentrations in the blood stream were monitored at appropriate intervals using LC-MS.
Pharmacokinetic studies were performed to monitor compound concentrations in plasma following i.v., i.p. or s.c. administration. Studies were conducted in C57BI/6 mice weighing approximately 20 g.
Peptide concentrations in the plasma were analysed by HPLC-MS on a Surveyor HPLC combined with mass spectrometer LCQ classic or Advantage (all Thermo Electron, US) equipped with an ESI-source. All HPLC experiments were carried out on a Phenomenex C-18 Luna column (50 mm×2.0 mm, 5 μl injection volume) using a linear gradient: eluent A 0.05% trifluoracetic acid (TFA) in water; eluent B 0.05% TFA in acetonitrile; flow rate 0.3 mL/min in 10 min. […] The internal standard is prepared as a 0.1 μg/ml solution in 100% methanol. 50 μl plasma and 50 μl internal standard are mixed. 100 μl methanol is added and mixed thoroughly. After 30 min incubation on ice the vial is centrifuged for 15 min at 4° C. […] 150 μl of the supernatant are transferred into the HPLC vial

`CC[C@@H](C)[C@@H](NC(=O)[C@@H](CS)NC(C)=O)C(=O)N[C@H](CCSC)C(=O)N[C@H](Cc1ccccc1)C(=O)N[C@H](Cc1c[nH]c2ccccc12)C(=O)N[C@H](Cc1ccc(O)cc1)C(=O)N[C@H](CC(=O)O)C(=O)N[C@H](CCC(=O)O)C(=O)N[C@H](Cc1ccc(O)cc1)C(=O)N[C@H](CCC(=O)O)C(N)=O` [Peptide B03, Ac-cimfwydeye-NH2] (Ac-[dC][dI][dM][dF][dW][dY][dD][dE][dY][dE]-NH2): the “FEIBA EU (from clotting time)” value in data set [1] (compound 12.5 μM) is 291 mU/ml; in data set [1] (compound 25 μM) it was 325 mU/ml. Moreover, the “Activity in the Defined Fibrin Deposition Assay” value (shortened to “Activity”) in [1] is reported as “possess activity”. Also, at HERG channel [2], the “Classification as HERG-channel blocker (potency ranking of Roche et al.)” value (“Classification as HERG-channel blocker” below) is “high potency”. In addition, on HERG channel [3], the “HERG inhibition Rb+ efflux (% Inhibition at 10 μM)” value was −2.1%. The “Max dose within toxicity category: Severe toxicity (one of the animals died within one hour)” value in the data set with C57BI/6 mice is on record as 15 mg/kg.

On to Ac-PMKFDVWDLYFEIVW-NH2 [Peptide A02], for which, in “in vitro [4]”, the amount remaining at 0.5 h, 1 μM was 45%. For the same molecule, the “HERG inhibition Rb+ efflux (% Inhibition at 10 μM)” value on HERG channel [3] was −3.3%. Moreover, in the data set “in vivo” (ip), the level at 5 min is 0.273 µg/mL, the level at 20 min was found to be 0.315 µg/mL, the level at 40 min stood at 0.289 µg/mL and the level at 1 h amounted to 0.612 µg/mL. In “in vivo” (ip), this molecule showed a level at 80 min of 0.099 µg/mL and a level at 100 min of 0.176 µg/mL. In “in vivo” (iv), this molecule yielded a level at 5 min of 11.6 µg/mL, a level at 10 min of 7.26 µg/mL, a level at 0.25 h of 3.18 µg/mL and a level at 20 min of 2.74 µg/mL. Besides, in the data set “in vivo” (iv), the level at 25 min turned out to be 1.44 µg/mL and the level at 0.5 h was 1.31 µg/mL.

Take Ac-RMKFDVWDLYFEIVW-NH2 [Peptide A01]: the entries for the “FEIBA EU (from clotting time)” value in data set [1] (compound 25 μM), in data set [1] (compound 50 μM) and in [1] (compound 100 μM) were 80 mU/ml, 127 mU/ml and 145 mU/ml, respectively. Further, the “Activity” value in data set [1] was “possess activity”. The molecule also had a fraction remaining at 0.5 h, 1 μM in the data set “in vitro [4]” of 30%. The “Classification as HERG-channel blocker” value at HERG channel [2] is reported as “low-potency”. In the data set “in vivo” (iv), this molecule showed a level at 5 min of 0.673 µg/mL. In addition, the level at 10 min in “in vivo” (iv) was 0.352 µg/mL. In “in vivo” (iv), this molecule gave a level at 0.25 h of 0.454 µg/mL. This molecule also showed a level at 20 min in “in vivo” (iv) of 0.145 µg/mL. This molecule also returned a level at 25 min in “in vivo” (iv) of 0.282 µg/mL. In “in vivo” (iv), this molecule returned a level at 0.5 h of 0.115 µg/mL. Moreover, the recovery at 6 h, 5 μM in “in vitro [5]” was over 88.6%; in the data set “in vitro [6]”, over 73.3%; on mouse serum albumin it was over 103%. In addition, the fraction unbound at 6 h, 5 μM in the data set “in vitro [5]” (plasma) is under 0.017; in the data set “in vitro [6]” (plasma) it was under 0.008; on mouse serum albumin it was under 0.003.

On to Ac-WDLYFEIVW-NH2 [Peptide A05], for which the “FEIBA EU (from clotting time)” value in [1] (compound 10 μM) is on record as 119 mU/ml. Also, in data set [1] (compound 25 μM), the “FEIBA EU (from clotting time)” value is on record as 193 mU/ml. Further, the “FEIBA EU (from clotting time)” value in [1] (compound 50 μM) is on record as 219 mU/ml. The “Activity” value in [1] is recorded as “possess activity”. Further, at HERG channel [2], the “Classification as HERG-channel blocker” value was “low-potency”. Moreover, in the data set with C57BI/6 mice, the “Max dose within toxicity category: Severe toxicity (one of the animals died within one hour)” value stood at 15 mg/kg and the “Max dose within toxicity category: Some toxicity (ataxy or catalepsy, no deaths)” value is listed as 1.5 mg/kg. In “in vivo” (ip), the level at 5 min came to 0.119 µg/mL, the level at 20 min is 0.165 µg/mL, the level at 40 min came out at 0.185 µg/mL and the level at 1 h worked out at 0.13 µg/mL. Further, in “in vivo” (ip), the level at 80 min was 0.049 µg/mL and the level at 100 min came out at 0.05 µg/mL. In addition, in the data set “in vivo” (iv), the level at 5 min was determined as 2.6 µg/mL, the level at 10 min is 2.04 µg/mL, the level at 0.25 h turned out to be 0.173 µg/mL and the level at 20 min was 0.101 µg/mL. The molecule further displayed a level at 25 min in “in vivo” (iv) of 0.023 µg/mL.

In the case of Ac-WDLYFEIVWE [Peptide A06], the “FEIBA EU (from clotting time)” value in [1] (compound 12.5 μM) came to 232 mU/ml. Besides, the “FEIBA EU (from clotting time)” value in data set [1] (compound 25 μM) worked out at 168 mU/ml. Besides, in [1], the “Activity” value is “possess activity”. The molecule also yielded a share remaining at 0.5 h, 1 μM in “in vitro [4]” of 49%. In addition, at HERG channel [3], the “HERG inhibition Rb+ efflux (% Inhibition at 10 μM)” value is −6.4%. For the same molecule, in the data set on C57BI/6 mice, the “Max dose within toxicity category: Severe toxicity (one of the animals died within one hour)” value is given as 25 mg/kg and the “Max dose within toxicity category: Some toxicity (ataxy or catalepsy, no deaths)” value worked out at 5 mg/kg. Moreover, in “in vivo” (ip), the level at 5 min is 6.44 µg/mL, the level at 20 min was 7.77 µg/mL, the level at 40 min worked out at 0.547 µg/mL and the level at 1 h was determined as 5.8 µg/mL. In addition, in “in vivo” (ip), the level at 80 min is 4.06 µg/mL and the level at 100 min was 3.02 µg/mL. Moreover, in the data set “in vivo” (iv), the level at 5 min worked out at 50 µg/mL, the level at 10 min came out at 32.6 µg/mL, the level at 0.25 h was 21 µg/mL and the level at 20 min turned out to be 15.6 µg/mL. In “in vivo” (iv), this molecule returned a level at 25 min of 11.3 µg/mL and a level at 0.5 h of 7.79 µg/mL.

For the molecule H-ERMEFDVWDLYFEIVW-NH2 [Peptide A09], the share remaining at 0.5 h, 1 μM in “in vitro [4]” came to 23%. Also, the “HERG inhibition Rb+ efflux (% Inhibition at 10 μM)” value at HERG channel [3] is listed as −1.6%. In the data set on C57BI/6 mice (i.p.), the “Max dose within toxicity category: No detected toxicity” value was found to be 15 mg/kg. In addition, in “in vivo” (ip), the level at 5 min came to 0.034 µg/mL, the level at 20 min was determined as 0.067 µg/mL, the level at 40 min was 0.06 µg/mL and the level at 1 h was 0.129 µg/mL. Moreover, in the data set “in vivo” (ip), the level at 80 min was found to be 0.074 µg/mL and the level at 100 min stood at 0.068 µg/mL. For the same molecule, in the data set “in vivo” (iv), the level at 5 min worked out at 0.35 µg/mL, the level at 10 min came to 0.184 µg/mL, the level at 0.25 h amounted to 0.109 µg/mL and the level at 20 min is 0.119 µg/mL. In “in vivo” (iv), this molecule had a level at 25 min of 0.064 µg/mL and a level at 0.5 h of 0.08 µg/mL.
